Experimental data as given in US20110217300A1, “Quinazolinone Compounds and Methods of Use Thereof” (priority 2007, published 2011).

How the values were obtained:
NCI-H460 = assay: MTS cell viability assay; assay type: cell-based, human; conditions: Homo sapiens, NCI-H460, 72 h, read-out: MTS NCI H460 GI50
Method in brief: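 Human cancer cells plated at 100-5000 cells/well, left 16-24 h, then exposed 72 h to serially diluted compound (final DMSO 0.33%) in DMEM with 10% FBS at 37° C. MTS/PMS added for 4 h, SDS-stopped, absorbance read at 490 nm; GI50 derived, at least 2 replicates.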

HsEg5 = biological target: T1, HsEg5 (Homo sapiens, UniProt P52732); assay: Luminescent detection of HsEg5 ATPase activity (Kinase-Glo Plus); assay type: biochemical
T1 sequence (P52732 18-359 limits assumed): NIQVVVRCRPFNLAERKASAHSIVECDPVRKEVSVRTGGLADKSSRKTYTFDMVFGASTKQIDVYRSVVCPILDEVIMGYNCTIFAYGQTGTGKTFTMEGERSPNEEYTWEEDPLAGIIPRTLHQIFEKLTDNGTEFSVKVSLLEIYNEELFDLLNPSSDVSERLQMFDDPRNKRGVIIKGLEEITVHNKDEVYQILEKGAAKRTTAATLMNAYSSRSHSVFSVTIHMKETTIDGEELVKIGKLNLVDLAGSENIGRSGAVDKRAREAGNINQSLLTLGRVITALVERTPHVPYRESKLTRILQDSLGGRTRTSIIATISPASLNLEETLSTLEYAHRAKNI
Description: Purified HsEg5 motor fragment was activated by mixture with preformed MT polymer (Cytoskeleton, Denver, Colo.) at room temperature for 20 minutes. MT activated ATPase activity was measured using Kinase-Glo® Plus Luminescent Kinase Assay (Promega, Madison, Wis.).
For inhibitor screening, 5 μL of compounds were incubated with 20 μL of MT-activated HsEg5 such that the final concentrations for compound range from 100 μM to 5 nM (1 to 3 serial dilutions, final concentration) and final concentration for HsEg5 is 25 nM. The mixture was incubated at room temperature for 20 minutes with mild shaking. The screening assay contained 0.3% DMSO in all reaction wells. We used wells containing only DMSO as negative controls and wells without ATP as background. Addition of 15 μL of 13 μM ATP (final concentration of 5 μM) initiated the ATP hydrolysis reaction. The 40 μL-reaction was allowed to proceed at room temperature for 45 minutes before addition of 40 μL of Kinase®-Glo Plus. After 15-minute development at room temperature, the luminescent was measured.
Eg5 IC50 data was generated using both fluorescence and Luminescence detection assays as described above. Compounds I-69 were screened using automated fluorescence assay while compounds 70-83 were screened using Luminescence detection assay. (See reference “Zhang B, Senator D, Wilson C J, Ng S C. (2005) “Development of a high-throughput robotic fluorescence-based assay for HsEg5 inhibitor screening” Anal Biochem. 345:326-335″).

A549 = assay: MTS cell viability assay; assay type: cell-based; conditions: Homo sapiens, A549, 72 h, read-out: MTS NCI A549 GI50
Method in brief: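 A549 and a second human cancer line seeded in DMEM/10% FBS, allowed 16–24 h to attach, then exposed 72 h at 37 °C, 5% CO2 to serially diluted compound (final DMSO 0.33%). Viability measured by MTS.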

Row | Compound | IC50 (HsEg5) [nM] | GI50 (NCI-H460) [nM] | GI50 (A549) [nM]
1 | C#CC[C@H](c1nc2cc(Cl)ccc2c(=O)n1Nc1ccccc1)N(CCCN)C(=O)c1cc2ccccc2s1 [Compound 73, (R)—N-(3-Aminopropyl)-N-(1-(7-chloro-4-oxo-3-(phenylamino)-3,4-dihydroquinazolin-2-yl)but-3-ynyl)benzo[b]thiophene-2-carboxamide] | 120 | 330 | 490
2 | C#CC[C@H](c1nc2cc(Cl)ccc2c(=O)n1Nc1ccccc1)N(CCCN)C(=O)c1c(F)c(F)cc(F)c1F [Compound 71] | 160 | 320 | 840
3 | C#CC[C@H](c1nc2cc(Cl)ccc2c(=O)n1Nc1ccccc1)N(CCCN)C(=O)c1ccc(C)c(F)c1F [Compound 76, N-(3-Amino-propyl)-N—[(R)-1-(7-chloro-4-oxo-3-phenylamino-3,4-dihydro-quinazolin-2-yl)-but-3-ynyl]-2,3-difluoro-4-methyl-benzamide] | 130 | 860 | 1300
4 | C#CC[C@H](c1nc2cc(Cl)ccc2c(=O)n1Nc1ccccc1)N(CCCN)C(=O)c1cc(F)c(F)c(F)c1F [Compound 72, (R)—N-(3-Aminopropyl)-N-(1-(7-chloro-4-oxo-3-(phenylamino)-3,4-dihydroquinazolin-2-yl)but-3-ynyl)-2,3,4,5-tetrafluorobenzamide] | 40 | 330 | 620
5 | C#CC[C@H](c1nc2cc(Cl)ccc2c(=O)n1Nc1ccccc1)N(CCCN)C(=O)c1ccc(C)cc1 [Compound 75, N-(3-Amino-propyl)-N—[(R)-1-(7-chloro-4-oxo-3-phenylamino-3,4-dihydro-quinazolin-2-yl)-but-3-ynyl]-4-methyl-benzamide] | 90 | 1500 | 2800
6 | CC#CCC(c1nc2cc(Cl)ccc2c(=O)n1Nc1ccccc1)N(CCCN)C(=O)c1cccc(Cl)c1F (stereo not drawn) [Compound 74, N-(3-Aminopropyl)-3-chloro-N-(1-(7-chloro-4-oxo-3-(phenylamino)-3,4-dihydroquinazolin-2-yl)pent-3-ynyl)-2-fluorobenzamide] | 5900 | 1230 | 1800

The next lines start with results.

Row | IC50 (HsEg5) [nM] | Compound | GI50 (NCI-H460) [nM] | GI50 (A549) [nM]
7 | 6600 | C#CC[C@H](c1nc2cccnc2c(=O)n1Nc1ccccc1)N(CCCN)C(=O)c1cccc(Cl)c1F [Compound 83, (R)—N-(3-Aminopropyl)-3-chloro-2-fluoro-N-(1-(4-oxo-3-(phenylamino)-3,4-dihydropyrido[3,2-d]pyrimidin-2-yl)but-3-ynyl)benzamide] | 27000 | > 100000
8 | 550 | C#CC[C@H](c1nc2cc(Cl)ccc2c(=O)n1Nc1ccccc1)N(CCCN)C(=O)c1c(F)cc(Cl)cc1F [Compound 79] | 430 | 1300
9 | 40 | C#CC[C@H](c1nc2cc(Cl)ccc2c(=O)n1Nc1ccccc1)N(CCCN)C(=O)c1ccc(OC)c(F)c1F [Compound 78] | 700 | 1450
10 | 70 | C#CC[C@H](c1nc2cc(Cl)ccc2c(=O)n1Nc1ccccc1)N(CCCN)C(=O)c1c(OC)ccc(F)c1F [Compound 77] | 530 | 860
11 | 160 | C#CC[C@H](c1nc2cc(Cl)ccc2c(=O)n1Nc1ccccc1)N(CCCN)C(=O)c1cc(F)cc(F)c1F [Compound 81, (R)—N-(3-Aminopropyl)-N-(1-(7-chloro-4-oxo-3-(phenylamino)-3,4-dihydroquinazolin-2-yl)but-3-ynyl)-2,3,5-trifluorobenzamide] | 340 | 660
12 | 90 | C#CC[C@H](c1nc2cc(Cl)ccc2c(=O)n1Nc1ccccc1)N(CCCN)C(=O)c1cc(F)cc(F)c1 [Compound 80, (R)—N-(3-Aminopropyl)-N-(1-(7-chloro-4-oxo-3-(phenylamino)-3,4-dihydroquinazolin-2-yl)but-3-ynyl)-3,5-difluorobenzamide] | 100 | 580
